Results as given in US12103926B2, “Compounds for treating huntington's disease” (PTC THERAPEUTICS, INC., priority 2018, dated 2024).

Tested on: Endogenous Huntingtin Protein
Assay: Endogenous Huntingtin Protein Assay (ELISA-based MSD electrochemiluminescence assay)
Assay type: cell-based
Conditions: MW1 (expanded polyglutamine) or MAB2166 capture antibody; lysates
Procedure: Compounds of Formula (I) were tested using the Meso Scale Discovery (MSD) Assay provided in International Application No. PCT/US2016/066042, filed on Dec. 11, 2016 and claiming priority to United States Provisional Application U.S. 62/265,652 filed on Dec. 10, 2015, the entire contents of which are incorporated herein by reference.
The Endogenous Huntingtin Protein assay used in Example 1 was developed using the ELISA-based MSD electrochemiluminescence assay platform.
Endogenous Huntingtin Protein Assay
Meso Scale Discovery (MSD) 96-well or 384-well plates were coated overnight at 4° C. with MW1 (expanded polyglutamine) or MAB2166 monoclonal antibody (for capture) at a concentration of 1 μg/mL in PBS (30 μL per well). Plates were then washed three times with 300 μL wash buffer (0.05% Tween-20 in PBS) and blocked (100 μL blocking buffer; 5% BSA in PBS) for 4-5 hours at room temperature with rotational shaking and then washed three times with wash buffer.
Samples (25 μL) were transferred to the antibody-coated MSD plate and incubated overnight at 4° C. After removal of the lysates, the plate was washed three times with wash buffer, and 25 μL of #5656S (Cell signaling; rabbit monoclonal) secondary antibody (diluted to 0.25 μg/mL in 0.05% Tween-20 in blocking buffer) was added to each well and incubated with shaking for 1 Hour at room temperature. Following incubation with the secondary antibody, the wells were rinsed with wash buffer after which 25 μL of goat anti-rabbit SULFO TAG secondary detection antibody (required aspect of the MSD system) (diluted to 0.25 μg/mL in 0.05% Tween-20 in blocking buffer) was added to each well and incubated with shaking for 1 hour at room temperature. After rinsing three times with wash buffer, 150 μL of read buffer T with surfactant (MSD) were added to each empty well, and the plate was imaged on a SI 6000 imager (MSD) according to manufacturers' instructions provided for 96- or 384-well plates.

Compound	IC50 [µM]
CN(c1cnc(-c2ccc(-c3cn[nH]c3)c(F)c2)cn1)C1CC(C)(C)NC(C)(C)C1 [Cpd 16, 5-[3-fluoro-4-(1H-pyrazol-4-yl)phenyl]-N-methyl-N-(2,2,6,6-tetramethylpiperidin-4-yl)pyrazin-2-amine]	0.5 to 1
CN(c1cnc(-c2cc(F)c(-c3cn[nH]c3)c(F)c2)cn1)C1CC(C)(C)NC(C)(C)C1 [Cpd 17, 5-[3,5-difluoro-4-(1H-pyrazol-4-yl)phenyl]-N-methyl-N-(2,2,6,6-tetramethylpiperidin-4-yl)pyrazin-2-amine]	0.1 to 0.5
CN(c1cnc(-c2ccc(-c3ccn(C)c(=O)c3)cc2O)cn1)C1CC(C)(C)NC(C)(C)C1 [Cpd 18, 4-(3-hydroxy-4-{5-[methyl(2,2,6,6-tetramethylpiperidin-4-yl)amino]pyrazin-2-yl}phenyl)-1-methylpyridin-2(1H)-one]	1 to 3
CN(c1cnc(-c2ccc(-n3cccn3)cc2O)cn1)C1CC(C)(C)NC(C)(C)C1 [Cpd 19, 2-{5-[methyl(2,2,6,6-tetramethylpiperidin-4-yl)amino]pyrazin-2-yl}-5-(1H-pyrazol-1-yl)phenol]	1 to 3
CN(c1cnc(-c2ccc(-c3cn[nH]c3)cc2O)cn1)C1CCNCC1 [Cpd 20, 2-{5-[methyl(piperidin-4-yl)amino]pyrazin-2-yl}-5-(1H-pyrazol-4-yl)phenol]	0.5 to 1
Oc1cc(-c2cn[nH]c2)ccc1-c1cnc(N2CC3(CCNC3)C2)cn1 [Cpd 21, 2-[5-(2,6-diazaspiro[3.4]octan-2-yl)pyrazin-2-yl]-5-(1H-pyrazol-4-yl)phenol]	1 to 3
CN(c1cnc(-c2cc(F)c(-c3cn[nH]c3)cc2O)cn1)C1CC(C)(C)NC(C)(C)C1 [Cpd 22, 4-fluoro-2-{5-[methyl(2,2,6,6-tetramethylpiperidin-4-yl)amino]pyrazin-2-yl}-5-(1H-pyrazol-4-yl)phenol]	< 0.1
CN(c1cnc(-c2cc(Cl)c(-c3cn[nH]c3)cc2F)cn1)C1CC(C)(C)NC(C)(C)C1 [Cpd 23, 5-[5-chloro-2-fluoro-4-(1H-pyrazol-4-yl)phenyl]-N-methyl-N-(2,2,6,6-tetramethylpiperidin-4-yl)pyrazin-2-amine]	0.1 to 0.5
CN(c1cnc(-c2cc(C#N)c(-c3cn[nH]c3)cc2F)cn1)C1CC(C)(C)NC(C)(C)C1 [Cpd 24, 4-fluoro-5-{5-[methyl(2,2,6,6-tetramethylpiperidin-4-yl)amino]pyrazin-2-yl}-2-(1H-pyrazol-4-yl)benzonitrile]	< 0.1
Oc1cc(-c2cn[nH]c2)ccc1-c1cnc(OC2CC3CCC(C2)N3)cn1 (stereo not drawn) [Cpd 25, 2-[5-(8-azabicyclo[3.2.1]oct-3-yloxy)pyrazin-2-yl]-5-(1H-pyrazol-4-yl)phenol]	3 to 9
CN(c1cnc(-c2ccc(-c3cn[nH]c3)cc2O)cn1)C1CC(C)(C)NC(C)(C)C1 [Cpd 26, 2-{5-[methyl(2,2,6,6-tetramethylpiperidin-4-yl)amino]pyrazin-2-yl}-5-(1H-pyrazol-4-yl)phenol]	< 0.1
CN(c1cnc(-c2ccc(-c3cnn(C)c3)cc2O)cn1)C1CC(C)(C)NC(C)(C)C1 [Cpd 27, 5-(1-methyl-1H-pyrazol-4-yl)-2-{5-[methyl(2,2,6,6-tetramethylpiperidin-4-yl)amino]pyrazin-2-yl} phenol]	0.1 to 0.5
[2H]C([2H])([2H])n1cc(-c2ccc(-c3cnc(N(C)C4CC(C)(C)NC(C)(C)C4)cn3)c(O)c2)cn1 [Cpd 28, 5-[1-(^2H3)methyl-1H-pyrazo1-4-yl]-2-{5-[methyl(2,2,6,6-tetramethylpiperidin-4-yl)amino]pyrazin-2-yl}phenol]	0.5 to 1
Cc1cn(-c2ccc(-c3cnc(N(C)C4CC(C)(C)NC(C)(C)C4)cn3)c(F)c2F)cn1 [Cpd 41, 5-[2,3-difluoro-4-(4-methyl-1H-imidazol-1-yl)phenyl]-N-methyl-N-(2,2,6,6-tetramethylpiperidin-4-yl)pyrazin-2-amine]	0.5 to 1
Cc1ncn(-c2cc(F)c(-c3cnc(N(C)C4CC(C)(C)NC(C)(C)C4)cn3)cc2F)n1 [Cpd 42, 5-[2,5-difluoro-4-(3-methyl-1H-1,2,4-triazol-1-yl)phenyl]-N-methyl-N-(2,2,6,6-tetramethylpiperidin-4-yl)pyrazin-2-amine]	0.1 to 0.5
CN(c1cnc(-c2ccc(-c3c[nH]nc3F)cc2O)cn1)C1CC(C)(C)NC(C)(C)C1 [Cpd 43, 5-(3-fluoro-1H-pyrazol-4-yl)-2-{5-[methyl(2,2,6,6-tetramethylpiperidin-4-yl)amino]pyrazin-2-yl}phenol]	0.1 to 0.5
CC1(C)CC(Nc2cnc(-c3ccc(-c4ccncc4)cc3O)cn2)CC(C)(C)N1 [Cpd 44, 5-(pyridin-4-yl)-2-{5-[(2,2,6,6-tetramethylpiperidin-4-yl)amino]pyrazin-2-yl} phenol]	0.1 to 0.5

Compound	IC50 [µM]
CC1(C)CC(Nc2cnc(-c3ccc(-c4cccnc4)cc3O)cn2)CC(C)(C)N1 [Cpd 45, 5-(pyridin-3-yl)-2-{5-[(2,2,6,6-tetramethylpiperidin-4-yl)amino]pyrazin-2-yl}phenol]	0.5 to 1
CC1(C)CC(Nc2cnc(-c3ccc(-c4cn[nH]c4)cc3O)cn2)CC(C)(C)N1 [Cpd 46, 5-(1H-pyrazol-4-yl)-2-{5-[(2,2,6,6-tetramethylpiperidin-4-yl)amino]pyrazin-2-yl}phenol]	< 0.1
CC1(C)CC(Nc2cnc(-c3ccc(-c4ncccn4)cc3O)cn2)CC(C)(C)N1 [Cpd 47, 5-(pyrimidin-2-yl)-2-{5-[(2,2,6,6-tetramethylpiperidin-4-yl)amino]pyrazin-2-yl} phenol]	1 to 3
CC1(C)CC(Nc2cnc(-c3ccc(-c4ccccn4)cc3O)cn2)CC(C)(C)N1 [Cpd 48, 5-(pyridin-2-yl)-2-{5-[(2,2,6,6-tetramethylpiperidin-4-yl)amino]pyrazin-2-yl}phenol]	3 to 9
COc1cc(-c2ccc(-c3cnc(NC4CC(C)(C)NC(C)(C)C4)cn3)c(O)c2)ncn1 [Cpd 49, 5-(6-methoxypyrimidin-4-yl)-2-{5-[(2,2,6,6-tetramethylpiperidin-4-yl)amino]pyrazin-2-yl}phenol]	< 0.1
CC1(C)CC(Nc2cnc(-c3ccc(-n4ccnc4)cc3O)cn2)CC(C)(C)N1 [Cpd 50, 5-(1H-imidazol-1-yl)-2-{5-[(2,2,6,6-tetramethylpiperidin-4-yl)amino]pyrazin-2-yl}phenol]	0.1 to 0.5
CC1(C)CC(Nc2cnc(-c3ccc(-n4nccn4)cc3O)cn2)CC(C)(C)N1 [Cpd 51, 2-{5-[(2,2,6,6-tetramethylpiperidin-4-yl)amino]pyrazin-2-yl}-5-(2H-1,2,3-triazol-2-yl)phenol]	0.5 to 1
CC(C)(C)NC1CCN(c2cnc(-c3ccc(-c4cn[nH]c4)cc3O)cn2)C1 (stereo not drawn) [Cpd 52, 2-{5-[3-(tert-butylamino)pyrrolidin-1-yl]pyrazin-2-yl}-5-(1H-pyrazol-4-yl)phenol]	< 0.1
CC1(C)CC(Nc2cnc(-c3ccc(-c4cn5ccnc5cn4)cc3O)cn2)CC(C)(C)N1 [Cpd 53, 5-(imidazo[1,2-a]pyrazin-6-yl)-2-{5-[(2,2,6,6-tetramethylpiperidin-4-yl)amino]pyrazin-2-yl}phenol]	0.1 to 0.5
Cn1cc(-c2ccc(-c3cnc(NC4CC(C)(C)NC(C)(C)C4)cn3)c(O)c2)cn1 [Cpd 54, 5-(1-methyl-1H-pyrazol-4-yl)-2-{5-[(2,2,6,6-tetramethylpiperidin-4-yl)amino]pyrazin-2-yl}phenol]	< 0.1
Cn1ccc(-c2ccc(-c3cnc(NC4CC(C)(C)NC(C)(C)C4)cn3)c(O)c2)n1 [Cpd 55, 5-(1-methyl-1H-pyrazol-3-yl)-2-{5-[(2,2,6,6-tetramethylpiperidin-4-yl)amino]pyrazin-2-yl}phenol]	0.5 to 1
CC1(C)CC(Nc2cnc(-c3ccc(-c4ccc5nccn5n4)cc3O)cn2)CC(C)(C)N1 [Cpd 56, 5-(imidazo[1,2-b]pyridazin-6-yl)-2-{5-[(2,2,6,6-tetramethylpiperidin-4-yl)amino]pyrazin-2-yl}phenol]	< 0.1
CC1(C)CC(Nc2cnc(-c3ccc(-c4cn[nH]c4F)cc3O)cn2)CC(C)(C)N1 [Cpd 57, 5-(5-fluoro-1H-pyrazol-4-yl)-2-{5-[(2,2,6,6-tetramethylpiperidin-4-yl)amino]pyrazin-2-yl}phenol]	< 0.1
CC1(C)CC(Nc2cnc(-c3ccc(-c4cc[nH]n4)cc3O)cn2)CC(C)(C)N1 [Cpd 58, 5-(1H-pyrazol-3-yl)-2-{5-[(2,2,6,6-tetramethylpiperidin-4-yl)amino]pyrazin-2-yl}phenol]	0.1 to 0.5
CC1(C)CC(Nc2cnc(-c3ccc(-n4cc(F)cn4)cc3O)cn2)CC(C)(C)N1 [Cpd 59, 5-(4-fluoro-1H-pyrazol-1-yl)-2-{5-[(2,2,6,6-tetramethylpiperidin-4-yl)amino]pyrazin-2-yl}phenol]	1 to 3
[2H]C([2H])([2H])n1cc(-c2ccc(-c3cnc(N4CCC(NC(C)(C)C)C4)cn3)c(O)c2)cn1 (stereo not drawn) [Cpd 60, 2-{5-[3-(tert-butylamino)pyrrolidin-1-yl]pyrazin-2-yl}-5-[1-(^2H3)methyl-1H-pyrazol-4-yl]phenol]	< 0.1
